Here are results for 5 molecules from PubChem BioAssay AID1259407 (Chemical Carcinogenesis Research Information System (CCRIS), 2018).

The data set deals with CCRIS mutagenicity, Ames/micronucleus/aberration tests. Briefly: CCRIS mutagenicity studies.
Where [1] appears, read: Test System: AMES SALMONELLA TYPHIMURIUM, Strain/Indicator: TA98, Metabolic Activation: NONE, Method: STANDARD PLATE.
[2] abbreviates: Test System: AMES SALMONELLA TYPHIMURIUM, Strain/Indicator: TA98, Metabolic Activation: RAT, LIVER, S-9, AROCLOR 1254, Method: STANDARD PLATE.
[3] abbreviates: Test System: AMES SALMONELLA TYPHIMURIUM, Strain/Indicator: TA100, Metabolic Activation: NONE, Method: STANDARD PLATE.
The mark [4] stands for this setting: Test System: AMES SALMONELLA TYPHIMURIUM, Strain/Indicator: TA100, Metabolic Activation: RAT, LIVER, S-9, AROCLOR 1254, Method: STANDARD PLATE.
The mark [5] stands for this setting: Test System: AMES SALMONELLA TYPHIMURIUM, Strain/Indicator: TA1535, Metabolic Activation: NONE, Method: STANDARD PLATE.
The mark [6] stands for this setting: Test System: AMES SALMONELLA TYPHIMURIUM, Strain/Indicator: TA1535, Metabolic Activation: RAT, LIVER, S-9, AROCLOR 1254, Method: STANDARD PLATE.
The mark [7] stands for this setting: Test System: AMES SALMONELLA TYPHIMURIUM, Strain/Indicator: TA1537, Metabolic Activation: NONE, Method: STANDARD PLATE.
[8] abbreviates: Test System: AMES SALMONELLA TYPHIMURIUM, Strain/Indicator: TA1537, Metabolic Activation: RAT, LIVER, S-9, AROCLOR 1254, Method: STANDARD PLATE.

SMILES strings stand for the structures. Active and inactive are the calls of the source. How the calls were made is not given here.

In the case of `C=C(C)C(=O)OCCOCCOC(=O)C(=C)C`, the mutagenic call under setting [1] is “inactive; negative”; the mutagenic call under setting [2] is “inactive; negative”; the mutagenic call (Test System: AMES SALMONELLA TYPHIMURIUM, Strain/Indicator: TA98, Metabolic Activation: RAT, LIVER, S-9, SODIUM PHENOBARBITAL, Method: STANDARD PLATE) was “inactive; negative”; the mutagenic call under setting [3] is “inactive; negative”; the mutagenic call under setting [4] is “inactive; negative”; the mutagenic call (Test System: AMES SALMONELLA TYPHIMURIUM, Strain/Indicator: TA100, Metabolic Activation: RAT, LIVER, S-9, SODIUM PHENOBARBITAL, Method: STANDARD PLATE) was “inactive; negative”. Further, the mutagenic call under setting [5] was “inactive; negative”; the mutagenic call under setting [6] is “inactive; negative”; the mutagenic call (Test System: AMES SALMONELLA TYPHIMURIUM, Strain/Indicator: TA1535, Metabolic Activation: RAT, LIVER, S-9, SODIUM PHENOBARBITAL, Method: STANDARD PLATE) is “inactive; negative”; the mutagenic call under setting [7] was “inactive; negative”; the mutagenic call under setting [8] was “inactive; negative”; the mutagenic call (Test System: AMES SALMONELLA TYPHIMURIUM, Strain/Indicator: TA1537, Metabolic Activation: RAT, LIVER, S-9, SODIUM PHENOBARBITAL, Method: STANDARD PLATE) was “inactive; negative”. The mutagenic call was “inactive; negative” (Test System: AMES SALMONELLA TYPHIMURIUM, Strain/Indicator: TA1538, Metabolic Activation: NONE, Method: STANDARD PLATE); “inactive; negative” (Test System: AMES SALMONELLA TYPHIMURIUM, Strain/Indicator: TA1538, Metabolic Activation: RAT, LIVER, S-9, AROCLOR 1254, Method: STANDARD PLATE); “inactive; negative” (Test System: AMES SALMONELLA TYPHIMURIUM, Strain/Indicator: TA1538, Metabolic Activation: RAT, LIVER, S-9, SODIUM PHENOBARBITAL, Method: STANDARD PLATE).
Consider `Cc1cccc(N=O)c1`, for which the mutagenic call (Test System: AMES SALMONELLA TYPHIMURIUM, Strain/Indicator: TA98, Metabolic Activation: RAT, LIVER, S-9, AROCLOR 1254, Method: PREINCUBATION) is “inactive; negative”.
As to `CC(=O)Oc1cc(C=O)cc2c1C(COC(N)=O)C1(OC(C)=O)ON2CC2C1N2C(C)=O` (centres undefined), the mutagenic call was “inactive; negative” (Test System: AMES SALMONELLA TYPHIMURIUM, Strain/Indicator: TA98, Metabolic Activation: NONE, Method: PREINCUBATION); “inactive; negative” (Test System: AMES SALMONELLA TYPHIMURIUM, Strain/Indicator: TA98, Metabolic Activation: RAT, LIVER, S-9, PHENOBARBITAL AND 5,6-BENZOFLAVONE, Method: PREINCUBATION); “inactive; negative” (Test System: AMES SALMONELLA TYPHIMURIUM, Strain/Indicator: TA100, Metabolic Activation: NONE, Method: PREINCUBATION); “inactive; negative” (Test System: AMES SALMONELLA TYPHIMURIUM, Strain/Indicator: TA100, Metabolic Activation: RAT, LIVER, S-9, PHENOBARBITAL AND 5,6-BENZOFLAVONE, Method: PREINCUBATION); “inactive; negative” (Test System: AMES SALMONELLA TYPHIMURIUM, Strain/Indicator: TA102, Metabolic Activation: NONE, Method: PREINCUBATION); “active; positive” (Test System: AMES SALMONELLA TYPHIMURIUM, Strain/Indicator: TA102, Metabolic Activation: RAT, LIVER, S-9, PHENOBARBITAL AND 5,6-BENZOFLAVONE, Method: PREINCUBATION). Moreover, the mutagenic call reads like this: (Test System: AMES SALMONELLA TYPHIMURIUM, Strain/Indicator: TA1535, Metabolic Activation: NONE, Method: PREINCUBATION) “inactive; negative”; (Test System: AMES SALMONELLA TYPHIMURIUM, Strain/Indicator: TA1535, Metabolic Activation: RAT, LIVER, S-9, PHENOBARBITAL AND 5,6-BENZOFLAVONE, Method: PREINCUBATION) “inactive; negative”; (Test System: AMES SALMONELLA TYPHIMURIUM, Strain/Indicator: TA1537, Metabolic Activation: NONE, Method: PREINCUBATION) “inactive; negative”; (Test System: AMES SALMONELLA TYPHIMURIUM, Strain/Indicator: TA1537, Metabolic Activation: RAT, LIVER, S-9, PHENOBARBITAL AND 5,6-BENZOFLAVONE, Method: PREINCUBATION) “inactive; negative”.
Consider `O=C(CCl)c1ccc(Cl)cc1Cl`, for which the mutagenic call is, setting by setting: (Test System: AMES SALMONELLA TYPHIMURIUM, Strain/Indicator: TA98, Metabolic Activation: HAMSTER, LIVER, S-9, AROCLOR 1254, Method: STANDARD PLATE) “inactive; negative”; under setting [1], “inactive; negative”; under setting [2], “inactive; negative”; (Test System: AMES SALMONELLA TYPHIMURIUM, Strain/Indicator: TA100, Metabolic Activation: HAMSTER, LIVER, S-9, AROCLOR 1254, Method: STANDARD PLATE) “inactive; negative”; under setting [3], “inactive; negative”; under setting [4], “inactive; negative”. The mutagenic call (Test System: AMES SALMONELLA TYPHIMURIUM, Strain/Indicator: TA1535, Metabolic Activation: HAMSTER, LIVER, S-9, AROCLOR 1254, Method: STANDARD PLATE) was “inactive; negative”; the mutagenic call under setting [5] was “inactive; negative”; the mutagenic call under setting [6] was “inactive; negative”; the mutagenic call (Test System: AMES SALMONELLA TYPHIMURIUM, Strain/Indicator: TA1537, Metabolic Activation: HAMSTER, LIVER, S-9, AROCLOR 1254, Method: STANDARD PLATE) was “inactive; negative”; the mutagenic call under setting [7] was “inactive; negative”; the mutagenic call under setting [8] was “inactive; negative”. The mutagenic call reads like this: (Test System: MOUSE LYMPHOMA, Strain/Indicator: L5178Y (TK+/TK-), Metabolic Activation: NONE, Method: SUSPENSION/PLATE) “inactive; negative. reevaluation of results: negative”; (Test System: MOUSE LYMPHOMA, Strain/Indicator: L5178Y (TK+/TK-), Metabolic Activation: RAT, LIVER, S-9, AROCLOR 1254, Method: SUSPENSION/PLATE) “inactive; negative. reevaluation of results: negative”.
Consider `O[C@@H]1[C@@H]2O[C@@H]2c2c(cc3ccc4cccc5c6ccccc6c2c3c45)[C@H]1O`, for which the mutagenic call is “active; positive” (Test System: AMES SALMONELLA TYPHIMURIUM, Strain/Indicator: TA97, Metabolic Activation: NONE, Method: PREINCUBATION (EXPOSURE IN MEDIUM WITH KCL)); “active; positive” (Test System: AMES SALMONELLA TYPHIMURIUM, Strain/Indicator: TA97, Metabolic Activation: NONE, Method: PREINCUBATION (EXPOSURE IN MEDIUM WITHOUT KCL)); “active; positive” (Test System: AMES SALMONELLA TYPHIMURIUM, Strain/Indicator: TA98, Metabolic Activation: NONE, Method: PREINCUBATION (EXPOSURE IN MEDIUM WITH KCL)); “active; positive” (Test System: AMES SALMONELLA TYPHIMURIUM, Strain/Indicator: TA98, Metabolic Activation: NONE, Method: PREINCUBATION (EXPOSURE IN MEDIUM WITHOUT KCL)); “active; positive” (Test System: AMES SALMONELLA TYPHIMURIUM, Strain/Indicator: TA100, Metabolic Activation: NONE, Method: PREINCUBATION (EXPOSURE IN MEDIUM WITH KCL)); “active; positive” (Test System: AMES SALMONELLA TYPHIMURIUM, Strain/Indicator: TA100, Metabolic Activation: NONE, Method: PREINCUBATION (EXPOSURE IN MEDIUM WITHOUT KCL)). The mutagenic call (Test System: AMES SALMONELLA TYPHIMURIUM, Strain/Indicator: TA104, Metabolic Activation: NONE, Method: PREINCUBATION (EXPOSURE IN MEDIUM WITH KCL)) was “active; positive”; the mutagenic call (Test System: AMES SALMONELLA TYPHIMURIUM, Strain/Indicator: TA104, Metabolic Activation: NONE, Method: PREINCUBATION (EXPOSURE IN MEDIUM WITHOUT KCL)) is “active; positive”; the mutagenic call (Test System: CHINESE HAMSTER V-79, Strain/Indicator: V-79/6-THIOGUANINE, Metabolic Activation: NONE) was “active; positive”.
